Data on 20 compounds can be found in PMC11510069, “Anti-Diabetic Activities and Molecular Docking Studies of Aryl-Substituted Pyrazolo[3,4-b]pyridine Derivatives Synthesized via Suzuki Cross-Coupling Reaction” (Pharmaceuticals, 2024).

Where two headings read alike, the source gives them in different places.

Data set [1] addresses T1, α-amylase (Hi media RM 638) enzyme (Aspergillus oryzae, UniProt P0C1B3).
T1 construct: purchased Hi media RM 638
Description: biochemical. The protocol: The anti-diabetic activity of all the prepared derivatives (6a–i) and (7a–i) was evaluated following the method reported in refs. [31, 32]. In brief, to check the anti-diabetic activity of each compound, […] different concentrations, ranging from 250 to 50 μg, with a difference of 50 μg, were used and each concentration was treated with 200 μL of α-amylase (Hi media RM 638) enzyme to determine the anti-diabetic activity in triplicate at each concentration. Here, 0.6 mL of each sample at each concentration was mixed with 0.6 mL of buffered solution (0.03 M sodium phosphate buffer), which was subsequently incubated for 16 min at 37 °C. Afterwards, 1 mL of starch solution was added to the above solutions. In the next step, 1 mL of color-imparting reagent, […] (DNSA), was poured into each solution and the solution was left for 6 min in boiling water. Finally, the solutions were made up to 20 mL with distilled water. […] The absorbance value taken at 670 nm was used to check the performance of the newly obtained derivatives. The following Equation (1) was used to determine the percentage inhibition of each drug at the different concentrations. (1) %A=Acontrol−Asample/Acontrol×100 where %A, Acontrol and Asample are the percentage inhibition, absorbance blank and absorbance of sample, respectively.
The concentration of pyrazolo[3,4-b]pyridine derivative needed to inhibit the α-amylase activity by 50% is known as the IC50 value and is calculated from the plot of the percent inhibition against the log inhibitor concentration (i.e., synthesized drugs). A non-linear regression analysis on Graph Pad Prism 8.0.2. was performed on the plots to extract the IC50 value for each compound.

Setting [2] is: Table 3, anti-diabetic, hydrazide derivatives, read-out: IC50 Value.
The mark [3] stands for this setting: Table 2, in vitro anti-diabetic, ester derivatives, read-out: IC50 Value.
[4] abbreviates: Figure 6, read-out: IC50 (α-amylase inhibition).

On to `Cc1nn(-c2ccccc2)c2nc(C(=O)NN)cc(-c3ccc(-c4cccc5c4OCO5)s3)c12` [Compound 7c, 4-(5-(Benzo[d][1,3]dioxol-4-yl)thiophen-2-yl)-3-methyl-1-phenyl-1H-pyrazolo[3,4-b]pyridine-6-carbohydrazide], for which the melting point was 276 °C. Moreover, the concentration for half-maximal inhibition (IC50) in data set [1] (setting [2]) is 5.17 µM.
Compound `CCOC(=O)c1cc(-c2ccc(Br)s2)c2c(C)nn(-c3ccccc3)c2n1` [Compound 4, Ethyl 4-(5-Bromothiophen-2-yl)-3-methyl-1-phenyl-1H-pyrazolo[3,4-b]pyridine-6-carboxylate] displayed a melting point of 203 to 205 °C. The IC50 in data set [1] (setting [3]) worked out at 7.26 µM.
With `CCOC(=O)c1cc(-c2ccc(-c3cccc4c3OCO4)s2)c2c(C)nn(-c3ccccc3)c2n1` [Compound 6c, Ethyl 4-(5-(Benzo[d][1,3]dioxol-4-yl)thiophen-2-yl)-3-methyl-1-phenyl-1H-pyrazolo[3,4-b]pyridine-6-carboxylate], the melting point stood at 127 °C. Further, in data set [1] (setting [3]), the IC50 worked out at 5.15 µM.
`Cc1nn(-c2ccccc2)c2nc(C(=O)NN)cc(-c3ccc(-c4cccc(F)c4F)s3)c12` [Compound 7g, 4-(5-(2,3-Fluorophenyl)thiophen-2-yl)-3-methyl-1-phenyl-1H-pyrazolo[3,4-b]pyridine-6-carbohydrazide] registered a melting point of 275 °C. In addition, in data set [1] (setting [4]), the IC50 stood at 5.16 µM. In addition, the IC50 in data set [1] (setting [2]) worked out at 5.15 µM.
As for `Cc1nn(-c2ccccc2)c2nc(C(=O)NN)cc(-c3ccc(-c4ccccc4)s3)c12` [Compound 7b, 3-Methyl-1-phenyl-4-(5-phenylthiophen-2-yl)-1H-pyrazolo[3,4-b]pyridine-6-carbohydrazide], the half-inhibitory concentration (IC50) in data set [1] (setting [2]) amounted to 5.18 µM.
In turn, `CCOC(=O)c1cc(-c2ccc(-c3cccc(F)c3F)s2)c2c(C)nn(-c3ccccc3)c2n1` [Compound 6g, Ethyl 4-(5-(2,3-Difluorophenyl)thiophen-2-yl)-3-methyl-1-phenyl-1H-pyrazolo[3,4-b]pyridine-6-carboxylate] had a melting point of 170.3 °C. Besides, in data set [1] (setting [4]), the IC50 amounted to 5.2 µM. Besides, the half-inhibitory concentration (IC50) in data set [1] (setting [3]) turned out to be 5.56 µM.
Compound `Cc1nn(-c2ccccc2)c2nc(C(=O)NN)cc(-c3ccc(-c4ccc(Cl)s4)s3)c12` [Compound 7i, 4-(5′-Chloro-[2,2′-bithiophen]-5-yl)-3-methyl-1-phenyl-1H-pyrazolo[3,4-b]pyridine-6-carbohydrazide] registered a melting point of 270 °C. The concentration for half-maximal inhibition (IC50) in data set [1] (setting [2]) is 8.45 µM.
Compound `CCOC(=O)c1cc(-c2ccc(-c3cc(OC)cc(OC)c3)s2)c2c(C)nn(-c3ccccc3)c2n1` [Compound 6d, Ethyl 4-(5-(3,5-Dimethoxyphenyl)thiophene-2-yl)-3-methyl-1-phenyl-1H-pyrazolo[3,4-b]pyridine-6-carboxylate] yielded a melting point of 147.5 °C. Further, the IC50 in data set [1] (setting [3]) was determined as 7.06 µM.
As for `Cc1nn(-c2ccccc2)c2nc(C(=O)NN)cc(-c3ccc(Br)s3)c12` [Compound 5, 4-(5-Bromothiophen-2-yl)-3-methyl-1-phenyl-1H-pyrazolo[3,4-b]pyridine-6-carbohydrazide], the melting point came to 265 °C. Further, the IC50 in data set [1] (setting [2]) is 7.91 µM.
On to `Cc1ccc(-c2ccc(-c3cc(C(=O)NN)nc4c3c(C)nn4-c3ccccc3)s2)c(C)c1` [Compound 7e, 4-(5-(2,4-Dimethylphenyl)thiophen-2-yl)-3-methyl-1-phenyl-1H-pyrazolo[3,4-b]pyridine-6-carbohydrazide], for which, in data set [1] (setting [2]), the IC50 is 8.94 µM.
Take “Ethyl 4-(5-(3,5-Dimethylphenyl)thiophen-2-yl)-3-methyl-1-phenyl-1H-pyrazolo[3,4-b]pyridine-6-carboxylate [Compound 6e]”: the IC50 in data set [1] (setting [3]) was 9.01 µM.
As to `Cc1nn(-c2ccccc2)c2nc(C(=O)NN)cc(-c3ccc(-c4cccs4)s3)c12` [Compound 7a, 4-([2,2′-Bithiophen]-5-yl)-3-methyl-1-phenyl-1H-pyrazolo[3,4-b]pyridine-6-carbohydrazide], the melting point came to 255 °C. In addition, the 50% inhibitory concentration (IC50) in data set [1] (setting [2]) is 5.21 µM.
For `CCOC(=O)c1cc(-c2ccc(-c3cccc(C(C)(C)C)c3)s2)c2c(C)nn(-c3ccccc3)c2n1` [Compound 6f, Ethyl 4-(5-(3-(Tert-butyl)phenyl)thiophen-2-yl)-3-methyl-1-phenyl-1H-pyrazolo[3,4-b]pyridine-6-carboxylate], the half-inhibitory concentration (IC50) in data set [1] (setting [4]) is 58.7 µM; in data set [1] (setting [3]), 58.6 µM.
`CCOC(=O)c1cc(-c2ccc(-c3cccs3)s2)c2c(C)nn(-c3ccccc3)c2n1` [Compound 6a, Ethyl 4-([2,2′-Bithiophen]-5-yl)-3-methyl-1-phenyl-1H-pyrazolo[3,4-b]pyridine-6-carboxylate] displayed a melting point of 154 to 157 °C. Moreover, in data set [1] (setting [3]), the half-inhibitory concentration (IC50) turned out to be 8.38 µM.
`CCOC(=O)c1cc(-c2ccc(-c3ccc(Cl)s3)s2)c2c(C)nn(-c3ccccc3)c2n1` [Compound 6i, Ethyl 4-(5′-Chloro-[2,2′-bithiophen]-5-yl)-3-methyl-1-phenyl-1H-pyrazolo[3,4-b]pyridine-6-carboxylate]: the melting point came out at 165 °C. Further, the IC50 in data set [1] (setting [3]) is 7.4 µM.
Compound `COc1cc(OC)cc(-c2ccc(-c3cc(C(=O)NN)nc4c3c(C)nn4-c3ccccc3)s2)c1` [Compound 7d, 4-(5-(3,5-Dimethoxyphenyl)thiophen-2-yl)-3-methyl-1-phenyl-1H-pyrazolo[3,4-b]pyridine-6-carbohydrazide] showed a melting point of 249 °C. Moreover, in data set [1] (setting [2]), the concentration for half-maximal inhibition (IC50) is 5.12 µM.
`Cc1nn(-c2ccccc2)c2nc(C(=O)NN)cc(-c3ccc(-c4cccc(C(C)(C)C)c4)s3)c12` [Compound 7f, 4-(5-(3-(Tert-butyl)phenyl)thiophen-2-yl)-3-methyl-1-phenyl-1H-pyrazolo[3,4-b]pyridine-6-carbohydrazide]: in data set [1] (setting [2]), the IC50 is 5.1 µM.
For `Cc1nn(-c2ccccc2)c2nc(C(=O)NN)cc(-c3ccc(-c4cccc(C(F)(F)F)c4)s3)c12` [Compound 7h, 3-Methyl-1-phenyl-4-(5-(3-(trifluoromethyl)phenyl)thiophen-2-yl)-1H-pyrazolo[3,4-b]pyridine-6-carbohydrazide], the values for the IC50 in data set [1] (setting [4]) and in data set [1] (setting [2]) were 6.19 µM and 5.19 µM, respectively.
The compound `CCOC(=O)c1cc(-c2ccc(-c3cccc(C(F)(F)F)c3)s2)c2c(C)nn(-c3ccccc3)c2n1` [Compound 6h, Ethyl 3-Methyl-1-phenyl-4-(5-(3-(trifluoromethyl)phenyl)thiophene-2-yl)-1H-pyrazolo[3,4-b]pyridine-6-carboxylate] came in with a melting point of 149.5 °C. In data set [1] (setting [4]), the IC50 was 5.56 µM. Moreover, the concentration for half-maximal inhibition (IC50) in data set [1] (setting [3]) stood at 5.2 µM.
Take `CCOC(=O)c1cc(-c2ccc(-c3ccccc3)s2)c2c(C)nn(-c3ccccc3)c2n1` [Compound 6b, Ethyl 3-Methyl-1-phenyl-4-(5-phenylthiophen-2-yl)-1H-pyrazolo[3,4-b]pyridine-6-carboxylate]: the IC50 in data set [1] (setting [3]) stood at 5.14 µM.
